Measurements published in patent US6495376B1, “Methods and compositions for regulating protein-protein interactions” (Beth Israel Deaconess Medical Center, priority 1999, dated 2002).
Where two headings read alike, the source gives them in different places. Where no end group is shown, it is not given here. [ ]: non-standard residue; d: D form. pT = C[C@@H](OP(=O)(O)O)[C@H](N)C(=O)O; pS = N[C@@H](COP(=O)(O)O)C(=O)O

Columns and labels:
Pin1 = Pin1 (Homo sapiens, UniProt Q13526); assay: ELISA peptide binding to Pin1; conditions: for Binding (OD@405 nm), tau peptides: Pin1; for Binding (OD@405 nm), Amyloid Precursor Protein Peptide: protein not printed in these lines, text: Pin1 WW-domain
WFYpSPFLE (Pintide) = assay: Fluorescence anisotropy (polarization) binding to fluorescein-labeled phosphorylated Pintide analogue
Excerpt: To determine the affinity of Pin1, and its WW or PPIase domain for phosphopeptides, peptides were labeled with fluorescein and their interactions with Pin1 measured using quantitative fluorescence anisotrophy. To prevent nonspecific labeling, a Pintide analogue (WFYpSPFLE) SEQ ID NO: 9 was used, which binds Pin1 with a high affinity based on the peptide library screen as described by (Lu, K. P. et al., U.S. Ser. No. 60/058,164 (1997), the teachings of which are incorporated herein in their entirety.
(§1) Pintide and its nonphosphorylated counterpart were synthesized and incubated with GST-Pin1 or the GST-WW-domain of Pin1 in a binding buffer, using established procedures (Shen, M. et al., Genes & Dev 12:706 (1998)). After a 1 hr incubation, mitotic HeLa cell extracts were added and subjected to GST pull down experiments, followed by immunoblotting analysis using the MPM-2 antibody. To obtain semi-quantitative data, films of immunoblots were scanned at the region of 55 kDa, the major Pin1-binding protein, and data analyzed using ImageQuan (ScanJet II CX). The peptide binding constants were measured using a fluorescence polarization assay (Jiskoot, W. et al., Anal Biochem 196:421 (1991)). Peptides were fluorescein labeled at the N-terminus using the Fluorescein Amine Labeling Kit (Pan Vera Corp.) and purified by TLC according to the manufacturer's […]. To prevent nonspecific labeling, a Pintide analogue (WFYpSPFLE) SEQ ID NO: 8 and the nonphosphorylated control were used. Various concentrations of Pin1 and its mutant proteins were incubated with 0.1 μM of the labeled peptides in a binding buffer containing 50 mM HEPES, pH 7.4, 100 mM NaCl, 2% glycerol. Fluorescence polarization values were obtained using a Pan Vera Beacon 2000 system, as described by the manufacturer.

WFYSPFLE = assay: Fluorescence anisotropy binding to fluorescein-labeled nonphosphorylated control peptide; conditions: nonphosphorylated peptide
phosphorylated tau = assay: GST-Pin1 pulldown of tau; assay type: binding; conditions: AD brain extracts, PHFs or age-matched normal brain extracts
Excerpt: Pin1 binds and regulates the function of a defined subset of mitotic phosphoproteins by interacting with conserved phosphorylated Ser/Thr-Pro motifs that are also recognized by MPM-2, a mitosis-specific, phosphorylation-dependent monoclonal antibody (mAb) (Yaffe, M. B. et al., Science 278:1957-1960 (1997); Shen, M. et al., Genes Dev. 12:706-720 (1 998)). Tau is an MPM-2 antigen phosphorylated on multiple Ser/Thr-Pro motifs during mitosis (Illenberger, S. et al., Mol Biol Cell 9:1495-1512 (1998)). Experiments were undertaken to determine whether Pin1 binds tau. Tau isoform was either synthesized by in vitro transcription and translation in the presence of ^35S-Met or produced in bacteria as an N-terminal His-tagged protein, followed by purification using NTA-Ni columns (Yaffe, M. B. et al., Science 278:1957-1960 (1997); Shen, M. et al., Genes Dev. 12:706-720 (1998)). To generate interphase- and mitosis-specific phosphorylated form of tau, tau was incubated with Xenopus interphase and mitotic extracts, respectively (Shen, M. et al., Genes Dev. 12:706-720 (1998)). To prepare Cdc2 phosphorylated tau, purified recombinant tau was incubated with purified cyclin B/Cdc2 (UBI) for 6 to 12 hr at room temperature in a buffer containing 500 μM cold ATP, plus trace [^32P]-ATP in some experiments, (Vincent, I. et al., J Neurosci 17:3588-3598 (1997)).
Pin1 interactions with tau in AD brains were examined using a GST-Pin1 pulldown assay (Shen, M. et al., Genes Dev. 12:706-720 (1998)). Glutathione beads containing GST or GST-Pin1 were incubated with normal or AD brain extracts, or PHFs purified (Vincent, I. J. and Davies, P. Proc Natl Acad Sci USA 89:2878-2882 (1992)), and proteins associated with the beads were subjected to immunoblotting analysis using CP27, which recognizes all forms of tau. Recombinant and mutant Pin1 proteins were produced as N-terminal GST or His-tagged fusion proteins (Shen, M. et al., Genes Dev. 12:706-720 (1998)). PHFs were purified by immunoaffinity chromatography (Vincent, I. J. and Davies, P. Proc Natl Acad Sci USA 89:2878-2882 (1992)).
To determine whether Pin1 interacts with pT231-tau, GST-Pin1 beads were used to isolate tau from AD brain extracts or PHFs and T231 phosphorylation detected using CP9. Tau isolated by Pin1 beads was strongly immunoreactive with CP9. […] Thus, Pin1 binds pT231-tau through its WW-domain.

[1] = test system: MPM-2 antigens (mitotic phosphoproteins) of mitotic HeLa cell extracts; assay: GST pulldown from mitotic HeLa cell extracts, MPM-2 immunoblotting (phosphoprotein-binding activity); conditions: for Phosphoprotein binding activity: GST-fusion proteins with mitotic extracts, MPM2 antibody; for binding to mitotic phosphoproteins / MPM-2 antigens (in words): mitotic HeLa cell extracts
Procedure: GST-fusion proteins containing the WW-domain, PPIase-domain or the entire Pin 1 protein were prepared and incubated with interphase (G1/S arrested; Control) or dividing (M phase) HeLa cell extracts using well-known procedures (Lu, K. P., et al., Nature 380:544 (1996); (Shen, M., et al., Genes & Devl. 12:706 (1998)). Briefly, HeLa cells were arrested at the G1/S boundary or mitosis by incubation with thymidine and aphidicolin or nocodazole for 16 h, respectively. The cells were lysed and supernatants incubated with 10 μl of agarose beads containing GST-Pin1; GST-WW-domain of Pin1; GST-PPIase domain of Pin1; or control GST for 2 h at 4° C. The phosphorylated precipitated proteins were washed 5 times in buffer containing 1% Triton X-100 before subjecting to immunoblotting analysis using MPM-2 antibody, as described previously (Yaffe, M. B. et al., Science 278:1957 (1997); Schukowski, et al., Biochemistry 37:5566 (1998); Shen, M. et al., Genes & Dev 12:706 (1998)). MPM-2 recognizes a subset of mitotic phosphoproteins including Pin1-binding proteins such as cdc25.
as §1
To examine the effect of Pin1 phosphorylation on Pin1 binding to ligands, Pin1 and Pin1 mutant proteins were incubated with the catalytic subunit of PKA and PKC (a mixture of α, β and γ, UBI) in a kinase reaction buffer containing 500 μM cold ATP at 30° C. for 15 min (Lu, K. P. et al., Anal. Biochem. 196:421 (1991)). The reactions were stopped by adding SDS sample buffer and reaction products separated on SDS-gels, followed by autoradiography. Pin1 proteins were isolated and used to bind MPM-2 antigens from mitotic extracts from HeLa cells, as previously described (Shen, M., et al., Genes & Dev 12:706 (1998)). Experiments were also performed with PKA and PKC, casein kinase, cyclin B/Cdc2 and SRPK1 kinases.

peptide substrate = assay: PPIase activity assay with peptide substrate; assay type: biochemical; conditions: relative to wild-type protein defined as 100%
Pin1 and its WW-domain = assay: Peptide competition of Pin1 / WW-domain binding to MPM-2 antigens of mitotic extracts; set-up: species or system human; conditions: for competition for phosphoprotein binding (in words): 0, 25, 50, 125, 250, 500 μM peptide
Procedure: To examine the ability of a phosphopeptide to compete with phosphoproteins for binding to the WW-domain, the Pin1 binding phosphopeptide Pintide (WFYpSPRLKK, SEQ ID NO: 13) (Lu, K. P. et al., U.S. Ser. No. 60/058,164 (1997)) was used in competition assays. A nonphosphorylated counterpart of Pintide ([…], SEQ ID NO: 14) (C-Pintide) was used as a control.
as §1

[2] = high affinity binding site, read-out: WFYpSPFLE Kd(μM) High affinity
[3] = low affinity binding site, read-out: WFYpSPFLE Kd(μM) Low affinity
[4] = fluorescein labeled Pintide, high affinity pSer-binding site in the WW-domain, read-out: Kd for Pintide
[5] = competition with MPM2 antigens of mitotic extracts

Pin1, sequence (Q13526 whole entry): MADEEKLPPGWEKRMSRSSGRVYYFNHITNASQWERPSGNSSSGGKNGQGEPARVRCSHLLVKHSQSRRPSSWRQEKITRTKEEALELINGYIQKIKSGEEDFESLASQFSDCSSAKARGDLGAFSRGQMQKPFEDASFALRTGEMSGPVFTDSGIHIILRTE
Pin1 and its WW-domain, sequence (Q13526 1-54 limits assumed): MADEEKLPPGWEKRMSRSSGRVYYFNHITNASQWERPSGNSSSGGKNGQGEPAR
phosphorylated tau, sequence (P10636 45-216 isoform P10636-2 limits assumed): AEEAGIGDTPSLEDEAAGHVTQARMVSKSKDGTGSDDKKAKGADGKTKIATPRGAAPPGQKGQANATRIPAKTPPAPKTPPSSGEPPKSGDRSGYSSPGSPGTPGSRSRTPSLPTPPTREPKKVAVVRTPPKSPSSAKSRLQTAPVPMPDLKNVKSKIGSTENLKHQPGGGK

## DAGLKESPLQTPTE (DAGLKE[pS]PLQTPTE) [pS-46]
Pin1
  Binding (OD@405 nm), tau peptides: 0.00 OD@405 nm

## GSLDNITHVPGGG (GSLDNI[pT]HVPGGG) [pT-361]
Pin1
  Binding (OD@405 nm), tau peptides: 0.00 OD@405 nm

## GST-Pin1: GST-fusion protein containing the entire Pin1 protein
WFYpSPFLE (Pintide); [2]
  Kd: 1.2 µM
WFYpSPFLE (Pintide); [3]
  Kd: 13 µM
WFYSPFLE
  WFYSPFLE Kd: Not binding
Phosphorylated tau
  binding to tau of brain extracts: bound tau present in AD brain extracts or PHFs

## GYSSPGSPGTPGSR (also: phosphoserine, place not given here) [pS-202]
Pin1
  Binding (OD@405 nm), tau peptides: 0.08 OD@405 nm

## KEVDAAVTPEERHLS [T-668]
Pin1
  Binding (OD@405 nm), Amyloid Precursor Protein Peptide: 0.00 OD@405 nm

## KEVDAAVTPEERHLS [pT-668] (KEVDAAV[pT]PEERHLS)
Pin1
  Binding (OD@405 nm), Amyloid Precursor Protein Peptide: 1.81 OD@405 nm

## KVAVVRTPPKSPS [T-231]
Pin1
  Binding (OD@405 nm), tau peptides: 0.00 OD@405 nm

## NVSSTGSIDMVDS (also: phosphoserine, place not given here) [pS-416]
Pin1
  Binding (OD@405 nm), tau peptides: 0.00 OD@405 nm

## PRHLSNVSSTGSIDMV [pS-412] (PRHLSNV[pS]STGSIDMV)
Pin1
  Binding (OD@405 nm), tau peptides: 0.02 OD@405 nm

## PRHLSNVSSTGSIDMV [pS-413] (PRHLSNVS[pS]TGSIDMV)
Pin1
  Binding (OD@405 nm), tau peptides: 0.00 OD@405 nm

## Pin1^R14A: Pin1 with substitution of Arg-14 with Ala
WFYpSPFLE (Pintide); [4]
  Kd: 2 µM
WFYpSPFLE (Pintide); [2]
  Kd: 2 µM
WFYpSPFLE (Pintide); [3]
  Kd: 13.5 µM
[1]
  Phosphoprotein binding activity: + (binding was detected)
  binding to mitotic phosphoproteins / MPM-2 antigens (in words): did not appear to cause a significant change
Peptide substrate
  PPlase Activity (%): 92%

## Pin1^S16A: Pin1 with Ser-16 substituted with Ala
WFYpSPFLE (Pintide); [4]
  Kd: 1.2 µM
WFYpSPFLE (Pintide); [2]
  Kd: 1.2 µM
WFYpSPFLE (Pintide); [3]
  Kd: 10.5 µM
[1]
  Phosphoprotein binding activity: + (binding was detected)
  binding to mitotic phosphoproteins / MPM-2 antigens (in words): interacted with all Pin1 ligands
[1]; protein phosphorylated by PKA before binding
  effect of phosphorylation by PKA on interaction with MPM2 antigens: not affected by PKA phosphorylation
Peptide substrate
  PPlase Activity (%): 96%

## Pin1^S18E: Pin1 with Ser-18 mutated to Glu
WFYpSPFLE (Pintide); [2]
  Kd: 1 µM
WFYpSPFLE (Pintide); [3]
  Kd: 12 µM
[1]
  Phosphoprotein binding activity: + (binding was detected)
  binding to mitotic phosphoproteins / MPM-2 antigens (in words): did not affect the ability of Pin1 to bind phosphoproteins
Peptide substrate
  PPlase Activity (%): 98%

## Pin1^Y23F: Pin1 mutant, Tyr-23 replaced by Phe
WFYpSPFLE (Pintide); [4]
  Kd: 5 µM
Peptide substrate
  PPlase Activity (%): 94%

## SIDMVDSPQLATL (also: phosphorylated Ser, place not given here) [pS-422]
Pin1
  Binding (OD@405 nm), tau peptides: 0.00 OD@405 nm

## SRSRTPSLPTPPT (also: phosphoserine, place not given here) [pS-214]
Pin1
  Binding (OD@405 nm), tau peptides: 0.00 OD@405 nm

## TRIPAKTPPAPKT (also: phosphorylated Thr, place not given here) [pT-175]
Pin1
  Binding (OD@405 nm), tau peptides: 0.00 OD@405 nm

## TSPRHLSNVSSTG (also: phosphoserine, place not given here) [pS-409]
Pin1
  Binding (OD@405 nm), tau peptides: 0.00 OD@405 nm

## VQSKIGSLDNITH (also: phosphoserine, place not given here) [pS-356]
Pin1
  Binding (OD@405 nm), tau peptides: 0.00 OD@405 nm

## VRTPPKSPSSAKSR (also: phosphoserine, place not given here) [pS-235]
Pin1
  Binding (OD@405 nm), tau peptides: 0.11 OD@405 nm

## WFYSPRLKK (not fully specified) [C-Pintide, nonphosphorylated counterpart of Pintide, control, reference compound]
Pin1 and its WW-domain
  competition for phosphoprotein binding (in words): not with the nonphosphorylated peptide

## WFYpSPRLKK (WFY[pS]PRLKK) [Pintide]
Pin1 and its WW-domain
  competition for phosphoprotein binding (in words): significantly reduced in a concentration dependent manner
Pin1 and its WW-domain; [5]
  peptide concentration with complete competition: 250 to 500 µM
  peptide concentration with significant competition: 50 µM
